Test results as given in PubChem BioAssay (NCI).
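These data come from cells grown in 96-well plates and exposed to compound for 48 hours at five concentrations. Abbreviation: GI50, concentration required for 50% inhibition of growth. TGI: total growth inhibition.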

Legend:
Assay in all cases: growth of human tumour cells (NCI), 48 h
[1] = test system: SN12C renal
[2] = test system: NCI-H23 lung
[3] = test system: NCI-H460 lung
[4] = test system: MOLT-4 leukemia
[5] = test system: HCC-2998 colon
[6] = test system: UO-31 renal
[7] = test system: BT-549 breast
[8] = test system: KM12 colon
[9] = test system: SR leukemia
[10] = test system: HS 578T breast

Compound	GI50 [1]	TGI [1]	GI50 [2]	TGI [2]	GI50 [3]	TGI [3]	GI50 [4]	TGI [4]	GI50 [5]	TGI [5]	GI50 [6]	TGI [6]	GI50 [7]	TGI [7]	GI50 [8]	TGI [8]	GI50 [9]	TGI [9]	TGI [10]
O=C([CH-]C(=O)c1ccccc1)c1ccccc1.O=C([CH-]C(=O)c1ccccc1)c1ccccc1.[La+3].[OH-].[OH3+]	18.4 µM	68 µM	12.2 µM	48.6 µM	8.66 µM	> 100 µM	6.24 µM	38.6 µM	16.1 µM	48.1 µM	6.62 µM	31.6 µM							
COc1ccc(/C(COc2ccc3c(=O)cc(-c4ccccc4)oc3c2)=N\O)cc1	9.36 µM	36.4 µM	29.5 µM	> 50 µM	13.3 µM	> 50 µM	> 50 µM	> 50 µM	16.5 µM	> 50 µM	13.5 µM	> 50 µM	12.9 µM	25.8 µM	12.5 µM	> 42.6 µM	6.61 µM	> 32 µM	
COC(=O)/C(C)=C(/CCC1(C)OCCO1)O[Si](C)(C)C		> 100 µM		> 100 µM		> 100 µM		> 100 µM		> 100 µM		> 100 µM				> 100 µM			
COc1ccc(Br)c(N/N=C2\CCCNC2=O)c1		> 100 µM		> 100 µM		> 100 µM		> 100 µM		> 100 µM		> 100 µM				> 100 µM		> 100 µM	
Cc1ccc(Nc2n[nH]c(=S)s2)cc1C		> 100 µM		> 100 µM		> 100 µM		> 100 µM		> 100 µM		> 100 µM		> 100 µM		> 100 µM			> 100 µM
CC/C=C1/C(=O)C=C[C@@H]1C/C=C\CCCC(=O)OC	3.08 µM	8.58 µM	2.17 µM	5.86 µM			1.37 µM	8.11 µM	2.13 µM	3.83 µM	2.24 µM	5.43 µM	2.84 µM	8.15 µM	2.08 µM	5.06 µM	0.563 µM		
Oc1c(C(Nc2cccc3cccnc23)c2ccccc2)ccc2cccnc12 (stereo not drawn)		> 100 µM		> 100 µM		> 100 µM		> 100 µM		> 100 µM		> 100 µM				> 100 µM		10.4 µM	
CC(=O)CC(=O)OC1CC(C)CCC1C(C)C (stereo not drawn)		> 100 µM		> 100 µM		> 100 µM		44.2 µM		> 100 µM		> 100 µM				> 100 µM			
COc1cc2c(cc1C)NC(=O)/C2=C/c1ccccn1	4.01 µM	18.4 µM	2.76 µM	9.1 µM	3.56 µM	> 100 µM	4.28 µM	> 100 µM			12.2 µM	> 100 µM					3.18 µM	> 100 µM	
O=C1c2ccccc2C(O)(O)C1(O)C1(O)C(=O)c2ccccc2C1(O)O (stereo not drawn)		30.6 µM		38.2 µM		37.3 µM						48.7 µM		> 100 µM		> 100 µM			> 100 µM
